# Patent US20070004724A1, “(+)-(2S,3s)-2-(3-chlorophenyl)-3,5,5-trimethyl-2-morpholinor for treating anxiety” (priority 2003, published 2007)
# Where a name gives a salt, the structure may show the parent alone.
# Tests used:
# Male Sprague Dawley rats [1] = assay: Social interaction test in rats, chronic study; assay type: in vivo, rat; details: for Number of line crossings: motor activity; for Number of line crossings / Time spent in active social interaction: average±s.e.
# Experimental: (§1) Social Interaction Test in Rats [Animal Models for Predicting Clinical Efficacy of Anxiolytic Drugs: Social Behaviour. Neuropsychobiology. 13 (1-2) 55-62, 1985]
# (§2) Male Sprague Dawley rats (350-400 g at day of test, Charles River, Italy) were individually housed for five days before the test session. The 15 minutes social interaction test was performed between 9:00 to 14:00. Pairs of rats, weight and treatment matched, were placed in the test arena under high light condition. Active social interaction (sniffing, following, grooming, biting, boxing, crawling over and under) and motor activity, in terms of line crossing were scored by an observer blind to the drug treatment. The animals were treated orally with vehicle (2 ml/kg) or with the hydrochloride salt of the compound of formula (I) at 3, 10 and 30 mg/kg, 45 minutes prior to the test (acute study), or for 20 days twice a day and with a final treatment given on day 21, the last treatment given 45 minutes before the test (chronic study). An additional group of rats (positive control group) received a single oral dose of chlordiazepoxide (CDP) 4 mg/kg 1 hour before testing.
# The results of the chronic study are given below in Table 3 (values given as average±s.e.), with the data for social interaction also illustrated in FIG. 1.
# [2] = target: T1, dopamine (DA) uptake, synaptosomes from rat caudoputamen (Rattus norvegicus, UniProt P23977); assay: In vitro synaptosomal uptake of [3H]-dopamine; assay type: biochemical; details: [3H]-dopamine uptake, mean ± SEM of 3 experiments
# T1 construct: Synaptosomes for use in obtaining in vitro uptake data were prepared from hypothalamus or striatum; from tissue; host or cells: rat caudoputamen (striatum) synaptosomes
# Experimental: In vitro uptake was determined, as reported previously, using synaptosomes prepared from rat caudoputamen (for dopamine uptake) and hypothalamus (for NA and serotonin uptake) using [^3H]-dopamine, [^3H]-NA and [^3H]-serotonin as transport substrates, respectively. See Eckhardt, S. B., R. A. Maxwell, and R. M. Ferris, A Structure-Activity Study of the Transport Sites for the Hypothalamic and Striatal Catecholamine Uptake Systems. Similarities and differences. Molecular Pharmacology, 21: p. 374-9, 1982.
# Synaptosomes for use in obtaining in vitro uptake data were prepared from hypothalamus or striatum by gently homogenizing the tissue in a 0.3 M sucrose/25 mM Tris pH 7.4 buffer containing iproniazid phosphate to inhibit monoamine oxidase. The homogenate was centrifuged at 1100×g at 4° C. for 10 min and the supernatant was used for uptake studies. […] Under these conditions uptake was linear with respect to both for substrate and tissue (with <5% total substrate transported). Non-specific uptake was defined as uptake at 0° C. [^3H]-substrate, which had been transported into synaptosomes, was separated from free [^3H]-substrate by filtration over GF/B filters and washing with cold Krebs-Henseleit buffer. The filters were counted for tritum in a liquid scintillation spectrometer.
# [3] = target: T2, serotonin uptake, synaptosomes from rat hypothalamus (Rattus norvegicus, UniProt P31652); assay: In vitro synaptosomal uptake of [3H]-serotonin; assay type: biochemical
# T2 construct: Synaptosomes for use in obtaining in vitro uptake data were prepared from hypothalamus or striatum; from tissue; host or cells: rat hypothalamus synaptosomes
# Text: Similarities and differences. Molecular Pharmacology, 21: p.
# Male Sprague Dawley rats [4] = assay: Social interaction test in rats, acute study; assay type: in vivo; details: acute rat social interaction study
# Experimental: as §1, §2
# The results for social interaction in the acute study are illustrated in FIG. 2.
# [5] = tested on: cell-lines expressing human monoamine transporters; assay: Compound-induced cytotoxicity in the transporter cell-lines; assay type: cell-based; details: at any of the concentrations causing reuptake inhibition
# CD-1 mice = assay: Light & dark box test in mice; assay type: in vivo; details: 3 mg/kg oral, 30 minutes before test
# Text: Light & Dark Box Test in Mice [Costall B. Jones B J. Kelly […]. and Tomkins D M. Exploration of Mice in a Black and White Test Box: Validation as a Model of Anxiety. Pharmacology, Biochemistry & Behavior. 32 (3):777-85, 1989] The light-dark box test consists of a Perspex box which is divided into two compartments, two-thirds of which is painted white and the remaining third is painted black. Mice are able to move freely between the two compartments using a small gap in the wall separating the two compartments. The floor is marked with lines, which provided an index of motor activity of the animals (number of line crossings). A white light (60 W) is placed over the white compartment of the box to provide a brightly-lit area which the animals find aversive. Mice tend to escape from this area preferring to remain in the black area, returning only occasionally to explore the white area. […] CD-1 mice (25-30 g, Charles River, Italy) were placed individually into the centre of the white side of the black/white test box for the 5 min test period and the behaviour of the mice was recorded by remote video recording. Behaviour of the mice was assessed subsequently from the tape recordings by an observer who was unaware of the animals' treatment. Different parameters were assessed to estimate both the anxiolytic and the sedative effects of the compound tested. […]
# [6] = chronic study, at 3 and 10 mg/kg oral
# T2 sequence (P31652 whole entry): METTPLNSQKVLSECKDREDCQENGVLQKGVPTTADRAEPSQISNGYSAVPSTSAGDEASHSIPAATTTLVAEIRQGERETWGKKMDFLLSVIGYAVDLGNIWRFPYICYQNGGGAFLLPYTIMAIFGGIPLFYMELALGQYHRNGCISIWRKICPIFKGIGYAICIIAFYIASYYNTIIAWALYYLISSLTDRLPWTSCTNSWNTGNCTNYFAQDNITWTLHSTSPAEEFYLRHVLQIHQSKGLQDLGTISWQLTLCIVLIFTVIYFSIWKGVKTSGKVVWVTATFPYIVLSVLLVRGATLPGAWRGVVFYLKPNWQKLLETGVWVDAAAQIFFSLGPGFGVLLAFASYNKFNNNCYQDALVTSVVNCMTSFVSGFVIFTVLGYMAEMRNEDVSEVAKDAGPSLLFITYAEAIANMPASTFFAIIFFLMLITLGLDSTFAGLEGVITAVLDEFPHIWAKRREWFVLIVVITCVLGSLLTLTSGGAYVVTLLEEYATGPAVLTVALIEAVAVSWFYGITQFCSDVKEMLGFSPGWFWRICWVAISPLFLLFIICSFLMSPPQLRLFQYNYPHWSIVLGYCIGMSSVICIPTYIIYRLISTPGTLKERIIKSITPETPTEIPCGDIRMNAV
# T1 sequence (P23977 whole entry): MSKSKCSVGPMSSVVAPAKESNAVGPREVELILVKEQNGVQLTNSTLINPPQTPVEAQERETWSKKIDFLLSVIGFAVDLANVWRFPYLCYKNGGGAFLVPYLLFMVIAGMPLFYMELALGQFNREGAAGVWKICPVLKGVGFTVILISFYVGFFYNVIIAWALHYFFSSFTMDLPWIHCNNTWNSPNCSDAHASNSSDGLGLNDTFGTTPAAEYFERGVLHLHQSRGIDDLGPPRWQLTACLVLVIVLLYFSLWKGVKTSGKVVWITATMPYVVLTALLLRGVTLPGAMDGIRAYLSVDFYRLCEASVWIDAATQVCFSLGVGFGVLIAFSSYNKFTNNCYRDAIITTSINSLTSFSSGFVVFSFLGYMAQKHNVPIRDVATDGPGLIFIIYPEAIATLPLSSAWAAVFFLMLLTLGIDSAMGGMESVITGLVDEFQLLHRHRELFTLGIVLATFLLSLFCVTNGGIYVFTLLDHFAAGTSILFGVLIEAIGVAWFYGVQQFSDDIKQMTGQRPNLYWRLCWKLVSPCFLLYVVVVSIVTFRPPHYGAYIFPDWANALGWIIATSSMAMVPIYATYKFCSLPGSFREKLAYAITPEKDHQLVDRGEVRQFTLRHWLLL
smiles,measurement,setting,value
"CNC1=Nc2ccc(Cl)cc2C(c2ccccc2)=[N+]([O-])C1 [CDP, chlordiazepoxide, reference compound]",Number of line crossings,"Male Sprague Dawley rats [1]; positive control, single oral dose 4 mg/kg, n=14",560.1 ± 29.6
same,"Time spent in active social interaction, % (change relative to vehicle)","Male Sprague Dawley rats [1]; positive control, single oral dose 4 mg/kg",53.2%
same,Time spent in active social interaction,"Male Sprague Dawley rats [1]; positive control, single oral dose 4 mg/kg 1 hour before testing, n=14",124.4 ± 10.7 s
"C[C@@H]1NC(C)(C)CO[C@@]1(O)c1cccc(Cl)c1 [Formula (I), (+)-(2S,3S)-2-(3-chlorophenyl)-3,5,5-trimethyl-2-morpholinol]",IC50,[2],9.3 ± 0.41 µM
same,IC50,[3],> 30 µM
same,inhibition of serotonin uptake,[3]; at 30 μM,no inhibition
same,anxiogenic activity,Male Sprague Dawley rats [4],lack of anxiogenic activity
"C[C@@H]1NC(C)(C)CO[C@@]1(O)c1cccc(Cl)c1 [Formula (I). HCl, (+)-(2S,3S)-2-(3-chlorophenyl)-3,5,5-trimethyl-2-morpholinol hydrochloride]",cytotoxicity,[5],No cytotoxicity was observed
same,Time spent in active social interaction,"Male Sprague Dawley rats [1]; chronic study, 3 mg/kg oral twice a day 20 days + day 21, 45 min before test, n=14",114.0 ± 11.5 s
same,Time spent in active social interaction,"Male Sprague Dawley rats [1]; chronic study, 10 mg/kg oral twice a day 20 days + day 21, 45 min before test, n=10",126.4 ± 13.8 s
same,Time spent in active social interaction,"Male Sprague Dawley rats [1]; chronic study, 30 mg/kg oral twice a day 20 days + day 21, 45 min before test, n=14",97.6 ± 8.7 s
same,effect on social interaction,"Male Sprague Dawley rats [1]; chronic study, at 30 mg/kg oral",lack of effect on social interaction
same,effect on locomotor activity,"Male Sprague Dawley rats [1]; chronic study, at 30 mg/kg oral, compared to vehicle",significant reduction in locomotor activity
same,anxiolytic-like effect in social interaction test,Male Sprague Dawley rats [1]; [6],able to induce an anxiolytic-like effect
same,effect on locomotor activity,Male Sprague Dawley rats [1]; [6],without any significant effects on locomotor activity
same,Number of line crossings,"Male Sprague Dawley rats [1]; chronic study, 3 mg/kg oral, n=14",587.0 ± 29.1
same,Number of line crossings,"Male Sprague Dawley rats [1]; chronic study, 10 mg/kg oral, n=10",571.0 ± 44.1
same,Number of line crossings,"Male Sprague Dawley rats [1]; chronic study, 30 mg/kg oral, n=14",476.2 ± 42.6
same,anxiolytic-like effect in light & dark box test,CD-1 mice,able to induce an anxiolytic-like effect
